Laboratory results published in patent US12649751B2 (Arcus Biosciences, Inc., priority 2022, dated 2026).
Where two headings read alike, the source gives them in different places.

How the values were obtained:
[1] = target: HPK1 (Homo sapiens, UniProt Q92918); assay: HPK1 Biochemical Assay (ADP-Glo luminescence; low ATP 10 μM or high ATP 200 μM)
[2] = system: p-SLP-76 (Ser376) in Jurkat cells; assay: pSLP76 Cellular Assay (AlphaLISA SureFire Ultra p-SLP-76 (Ser376), anti-CD3 activated Jurkat cells); assay type: cell-based; details: Homo sapiens, read-out: Cellular Potency
How it was run: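 Jurkat cells, serum-starved overnight in Opti-MEM then in HBSS, preincubated 1 h at 37 °C with 22-point 2-fold compound dilutions, then stimulated with anti-CD3 (0.025 mg/ml added solution) for 45 min. Lysate p-SLP-76 (Ser376) measured by AlphaLISA at 570 nm; IC50 from 4-parameter logistic fit.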

[3] = 2 nM HPK1, 10 μM ATP, read-out: Biochemical Potency (low ATP)
[4] = Jurkat cells, anti-CD3 stimulation, pSLP76
[5] = HPK1 ADP-Glo assay, high ATP (200 μM ATP, 5 nM HPK1), read-out: Biochemical Potency (high ATP)
[6] = pSLP76 (Ser376) AlphaLISA, anti-CD3 activated Jurkat cells

Sequence of HPK1 (Q92918 whole entry, species assumed): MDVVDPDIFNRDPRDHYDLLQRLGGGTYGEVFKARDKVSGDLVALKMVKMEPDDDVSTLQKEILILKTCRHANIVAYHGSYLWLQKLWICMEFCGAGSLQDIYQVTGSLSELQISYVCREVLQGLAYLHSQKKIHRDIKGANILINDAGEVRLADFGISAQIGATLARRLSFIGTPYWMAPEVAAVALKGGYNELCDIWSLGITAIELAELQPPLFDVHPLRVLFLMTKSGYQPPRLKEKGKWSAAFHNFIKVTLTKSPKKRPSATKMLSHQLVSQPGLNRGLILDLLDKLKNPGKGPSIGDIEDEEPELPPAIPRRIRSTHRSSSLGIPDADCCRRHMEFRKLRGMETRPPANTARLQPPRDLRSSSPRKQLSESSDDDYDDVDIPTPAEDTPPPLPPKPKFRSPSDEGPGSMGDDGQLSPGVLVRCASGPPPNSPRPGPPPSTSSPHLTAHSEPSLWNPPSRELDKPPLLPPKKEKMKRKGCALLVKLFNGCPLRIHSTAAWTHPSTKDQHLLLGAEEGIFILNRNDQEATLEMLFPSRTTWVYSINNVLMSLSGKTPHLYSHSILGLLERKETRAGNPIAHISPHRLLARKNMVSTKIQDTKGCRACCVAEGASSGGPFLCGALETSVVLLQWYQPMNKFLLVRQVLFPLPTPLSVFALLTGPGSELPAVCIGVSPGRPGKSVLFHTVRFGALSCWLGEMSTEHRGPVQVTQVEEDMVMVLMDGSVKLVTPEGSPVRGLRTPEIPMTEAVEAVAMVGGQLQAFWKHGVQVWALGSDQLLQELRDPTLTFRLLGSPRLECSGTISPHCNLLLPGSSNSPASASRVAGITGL

With CS(=O)(=O)c1cccc(-c2nc3cc(Nc4cccc(N5C[C@@H]6C[C@H]5CN6)n4)ncc3s2)c1 [Example 141, 6-[(1S,4S)-2,5-Diazabicyclo[2.2.1]heptan-2-yl]-N-[2-(3-methanesulfonylphenyl)-[1,3]thiazolo[5,4-c]pyridin-6-yl]pyridin-2-amine] the IC50 [1, 3] was less than 100 nM and the IC50 [2, 4] was 100 to 1000 nM.

Work on CCN1C[C@@H]2C[C@H]1CN2c1nc(C)cc(Nc2cc3nc(O[C@@H](C)c4ccccc4)sc3cn2)n1 [Example 483] yielded an IC50 [1, 5] of less than 100 nM and an IC50 [2, 6] of 100 to 1000 nM.

CCN1C[C@@H]2C[C@H]1CN2c1nc(C)cc(Nc2cc3nc(-c4cccc(N5CCC(F)CC5)c4)sc3cn2)n1 [Example 338] was tested, and the IC50 [1, 5] was less than 100 nM and the IC50 [2, 6] was 1000 to 5000 nM.

Cc1cc(Nc2cc3nc(-c4cncc(-c5ncc(F)cc5C)c4)sc3cn2)nc(N2C[C@@H]3C[C@H]2CN3C)n1 [Example 584] gave an IC50 [1, 5] of less than 100 nM and an IC50 [2, 6] of 100 to 1000 nM.

CCc1cc(C(=O)N(C)C)cc(-c2nc3cc(Nc4cc(C)nc(N5C[C@@H]6C[C@H]5CN6CCO)n4)ncc3s2)c1 [Example 546] showed an IC50 [1, 5] of less than 100 nM and an IC50 [2, 6] of less than 100 nM.

Work on CNS(=O)(=O)c1cccc(-c2nc3cc(Nc4cncc(N5C[C@@H]6C[C@H]5CN6C)n4)ncc3s2)c1 [Example 290, N-methyl-3-[6-({6-[(1S,4S)-5-methyl-2,5-diazabicyclo[2.2.1]heptan-2-yl]pyrazin-2-yl}amino)-[1,3]thiazolo[5,4-c]pyridin-2-yl]benzene-1-sulfonamide] yielded an IC50 [1, 3] of less than 100 nM and an IC50 [2, 4] of 100 to 1000 nM.

With CN(C)Cc1nc(Nc2cc3nc(-c4ccncc4F)sc3cn2)ccc1N1CCOCC1 [Example 4, 6-[(Dimethylamino)methyl]-N-[2-(3-fluoropyridin-4-yl)-[1,3]thiazolo[5,4-c]pyridin-6-yl]-5-(morpholin-4-yl)pyridin-2-amine] the IC50 [1, 3] was less than 100 nM and the IC50 [2, 4] was 100 to 1000 nM.

With CCN1C[C@@H]2C[C@H]1CN2c1nc(C)cc(Nc2cc3nc(-c4cccc(C(=O)N5CC[C@H](C)C5)c4)sc3cn2)n1 [Example 533] the IC50 [1, 5] was less than 100 nM and the IC50 [2, 6] was less than 100 nM.

Cc1cccnc1-c1nc2cc(Nc3ccc(C)c(N4C[C@@H]5C[C@H]4CN5)n3)ncc2s1 [Example 84, 6-[(1S,4S)-2,5-Diazabicyclo[2.2.1]heptan-2-yl]-5-methyl-N-[2-(3-methylpyridin-2-yl)-[1,3]thiazolo[5,4-c]pyridin-6-yl]pyridin-2-amine] showed an IC50 [1, 3] of less than 100 nM and an IC50 [2, 4] of 100 to 1000 nM.

With Cc1cc(Nc2cc3nc(-c4cccc(C5(C(=O)N(C)C)CC5)c4)sc3cn2)nc(N2C[C@@H]3C[C@H]2CN3C)n1 [Example 393] the IC50 [1, 5] was less than 100 nM and the IC50 [2, 6] was 100 to 1000 nM.

With Cc1cc(Nc2cc3nc(-c4ccn5nccc5c4)sc3cn2)nc(N2C[C@@H]3C[C@H]2CN3C)n1 [Example 377] the IC50 [1, 5] was less than 100 nM and the IC50 [2, 6] was 5000 to 25000 nM.

For Cc1cc(Nc2cc3nc(-c4ncco4)sc3cn2)nc(N2C[C@@H]3C[C@H]2CN3C)n1 [Example 388], the IC50 [1, 5] was less than 100 nM and the IC50 [2, 6] was 100 to 1000 nM.

Work on Cc1cc(Nc2cc3nc(-c4cc(C(=O)N(C)C)cc(C(C)C)c4)sc3cn2)nc(N2C[C@@H]3C[C@H]2CN3CCO)n1 [Example 551] yielded an IC50 [1, 5] of less than 100 nM and an IC50 [2, 6] of less than 100 nM.

Work on Cc1cc(Nc2cc3nc(-c4cccc(C(=O)N5CCC[C@@H]5C)c4)sc3cn2)nc(N2C[C@@H]3C[C@H]2CN3CCO)n1 [Example 548] yielded an IC50 [1, 5] of less than 100 nM and an IC50 [2, 6] of less than 100 nM.

CCN1C[C@@H]2C[C@H]1CN2c1nc(C)cc(Nc2cc3nc(-c4cccc(C(=O)N(C)C5CCOCC5)c4)sc3cn2)n1 [Example 528] gave an IC50 [1, 5] of less than 100 nM and an IC50 [2, 6] of 100 to 1000 nM.

For Cc1cc(Nc2cc3nc(-c4ccnc(C(O)C5CC5)c4)sc3cn2)nc(N2C[C@@H]3C[C@H]2CN3CCO)n1 (stereo partly drawn) [Example 307, 2-[(1S,4S)-5-(4-{2-[2-(cyclopropylhydroxymethyl)-4-pyridyl]-3-thia-1,5-diaza-6-indenylamino}-6-methyl-2-pyrimidinyl)-2,5-diazabicyclo[2.2.1]hept-2-yl]ethanol], the IC50 [1, 5] was less than 100 nM and the IC50 [2, 6] was less than 100 nM.
